# Reference: DBAASP
# Columns and labels:
# Assay in all cases: ≥ marks a high value that may be exact or a test limit, other limits are often not marked, values filed in µg/mL are converted to µM
# Listeria innocua = system: Listeria innocua
# Micrococcus luteus A270 = system: Micrococcus luteus A270
# Escherichia coli = system: Escherichia coli
# [1] = system: Staphylococcus aureus ATCC 43300
# [2] = system: Escherichia coli ATCC 25922
# Enterococcus faecium = system: Enterococcus faecium
# Streptococcus pneumoniae = system: Streptococcus pneumoniae
# Acinetobacter baumannii = system: Acinetobacter baumannii
# Klebsiella pneumoniae = system: Klebsiella pneumoniae
# Pseudomonas aeruginosa = system: Pseudomonas aeruginosa
# Salmonella typhimurium = system: Salmonella typhimurium
# Candida albicans = system: Candida albicans
# Staphylococcus aureus = system: Staphylococcus aureus
# [3] = system: Micrococcus luteus ATCC 9341
# [4] = system: Candida albicans ATCC 90028
# [5] = system: Pseudomonas aeruginosa ATCC 27853
# [6] = system: Bacillus subtilis ATCC 6051
# [7] = system: Klebsiella pneumoniae ATCC 700603
# [8] = system: Cryptococcus neoformans ATCC 208821
# [9] = system: Klebsiella pneumoniae ATCC 13883
# [10] = system: Klebsiella pneumoniae ATCC BAA-2146
# [11] = system: Acinetobacter baumannii ATCC 19606
# Staphylococcus xylosus = system: Staphylococcus xylosus
# [12] = system: Escherichia coli DH5alpha
SMILES,MIC [1] [µM],MIC [2] [µM],MIC (Acinetobacter baumannii) [µM],MIC (Klebsiella pneumoniae) [µM],MIC (Pseudomonas aeruginosa) [µM],MIC [4] [µM],MIC [5] [µM],MIC [6] [µM],MIC [7] [µM],MIC [8] [µM],MIC [9] [µM],MIC [10] [µM],MIC [11] [µM],MIC (Staphylococcus xylosus) [µM],MIC [12] [µM],further results
CC(C)[C@H](NC(=O)[C@@H]1CCCN1C(=O)[C@@H](NC(=O)[C@H](Cc1ccccc1)NC(=O)[C@H](CCC(=O)O)NC(=O)[C@H](CCCCN)NC(=O)CNC(=O)[C@H](Cc1ccccc1)NC(=O)[C@H](CC(N)=O)NC(=O)[C@H](CCCN=C(N)N)NC(=O)[C@H](C)N)[C@@H](C)O)C(=O)O [ARNFGKEFTPV],–,–,–,–,–,–,–,–,–,–,–,–,–,–,–,MIC (Listeria innocua): 6 µM; MIC (Micrococcus luteus A270): 6 µM; MIC (Escherichia coli): 12 µM
CC[C@H](C)[C@H](N)C(=O)N[C@@H](CC(C)C)C(=O)N1CCC[C@H]1C(=O)N[C@@H](Cc1c[nH]c2ccccc12)C(=O)N[C@@H](CCCCN)C(=O)N[C@@H](Cc1c[nH]c2ccccc12)C(=O)N1CCC[C@H]1C(=O)N[C@@H](Cc1c[nH]c2ccccc12)C(=O)N[C@@H](Cc1c[nH]c2ccccc12)C(=O)N1CCC[C@H]1C(=O)N[C@@H](C)C(=O)N[C@@H](CCCN=C(N)N)C(=O)N[C@@H](CCCN=C(N)N)C(N)=O [ILPWKWPWWPARR],–,–,–,–,–,–,–,–,–,–,–,–,–,–,–,MIC (Escherichia coli): 2.79 µM; MIC (Salmonella typhimurium): 2.79 µM; MIC (Candida albicans): 0.0045 µM; MIC (Staphylococcus aureus): 44.6 µM; MIC [3]: 1.6 µM
CC[C@H](C)[C@@H]1NC(=O)CNC(=O)[C@H](CCCN=C(N)N)NC(=O)[C@H](Cc2ccc(O)cc2)NC(=O)[C@@H]2CSSC[C@H](NC1=O)C(=O)N[C@@H](Cc1ccc(O)cc1)C(=O)N[C@@H](CCCN=C(N)N)C(=O)N[C@@H](CCCN=C(N)N)C(=O)N[C@H](C(=O)N[C@@H](CCCN=C(N)N)C(=O)O)CSSC[C@H](NC(=O)[C@H](C)NC(=O)[C@@H](N)CCCCN)C(=O)N[C@@H](Cc1ccccc1)C(=O)N[C@@H](CCCN=C(N)N)C(=O)N[C@@H](C(C)C)C(=O)N2 [KACFRVCYRGICYRRCR],3.71,0.116,0.232,> 7.43,1.86,3.71,0.232,0.232,0.464,0.232,0.232,0.464,0.232,–,–,–
CC(C)[C@@H]1NC(=O)[C@H](CCCN=C(N)N)NC(=O)[C@H](C)NC(=O)[C@@H](NC(=O)[C@H](Cc2c[nH]c3ccccc23)NC(=O)[C@@H](N)CCCCN)CSSC[C@@H](C(=O)N[C@@H](CCCN=C(N)N)C(=O)O)NC(=O)[C@H](CCCN=C(N)N)NC(=O)[C@H](CCCN=C(N)N)NC(=O)[C@H](Cc2ccc(O)cc2)NC(=O)[C@@H]2CSSC[C@H](NC1=O)C(=O)N[C@@H](C)C(=O)N[C@@H](CCCN=C(N)N)C(=O)NCC(=O)N[C@@H](C)C(=O)N2 [KWCARVCARGACYRRCR],> 7.77,3.89,7.77,> 7.77,> 7.77,7.77,> 7.77,7.77,> 7.77,7.77,7.77,7.77,> 7.77,–,–,–
CC[C@H](C)[C@@H]1NC(=O)CNC(=O)[C@H](CCCN=C(N)N)NC(=O)[C@H](Cc2ccc(O)cc2)NC(=O)[C@@H]2CSSC[C@H](NC1=O)C(=O)N[C@@H](Cc1ccc(O)cc1)C(=O)N[C@@H](CCCN=C(N)N)C(=O)N[C@@H](CCCN=C(N)N)C(=O)N[C@H](C(=O)N[C@@H](CCCN=C(N)N)C(=O)O)CSSC[C@H](NC(=O)[C@H](Cc1c[nH]c3ccccc13)NC(=O)[C@@H](N)CCCCN)C(=O)N[C@@H](C)C(=O)N[C@@H](CCCN=C(N)N)C(=O)N[C@@H](C(C)C)C(=O)N2 [KWCARVCYRGICYRRCR],1.82,0.057,0.228,7.3,0.912,3.65,0.228,0.114,0.228,0.228,0.228,0.228,0.228,–,–,–
CC[C@H](C)[C@@H]1NC(=O)CNC(=O)[C@H](CCCN=C(N)N)NC(=O)[C@H](Cc2ccc(O)cc2)NC(=O)[C@@H]2CSSC[C@H](NC1=O)C(=O)N[C@@H](Cc1ccc(O)cc1)C(=O)N[C@@H](CCCN=C(N)N)C(=O)N[C@@H](CCCN=C(N)N)C(=O)N[C@H](C(=O)N[C@@H](CCCN=C(N)N)C(=O)O)CSSC[C@H](NC(=O)[C@H](Cc1c[nH]c3ccccc13)NC(=O)[C@@H](N)CCCCN)C(=O)NCC(=O)N[C@@H](CCCN=C(N)N)C(=O)N[C@@H](C(C)C)C(=O)N2 [KWCGRVCYRGICYRRCR],7.34,0.115,0.918,> 7.34,7.34,3.67,0.459,0.23,0.459,0.918,0.918,0.918,0.23,–,–,–
CC[C@H](C)[C@H](NC(=O)[C@H](CC(C)C)NC(=O)[C@@H](NC(=O)[C@@H](N)CC(C)C)[C@@H](C)CC)C(=O)N[C@@H](CCCCN)C(=O)N[C@@H](CCCN=C(N)N)C(=O)N[C@@H](CCCCN)C(=O)O [LILIKRK],–,–,–,–,–,–,–,–,–,–,–,–,–,≥ 64,≥ 64,–

# The next lines start with results.
MIC [1] [µM],MIC [2] [µM],MIC (Acinetobacter baumannii) [µM],MIC (Klebsiella pneumoniae) [µM],MIC (Pseudomonas aeruginosa) [µM],MIC [4] [µM],MIC [5] [µM],MIC [6] [µM],MIC [7] [µM],MIC [8] [µM],MIC [9] [µM],MIC [10] [µM],MIC [11] [µM],MIC (Staphylococcus xylosus) [µM],MIC [12] [µM],SMILES,further results
1.5,1.3,10.7,8,4,–,–,–,–,–,–,–,–,–,–,CC[C@H](C)[C@H](NC(=O)[C@H](Cc1cnc[nH]1)NC(=O)CNC(=O)CN)C(=O)N[C@@H](CCCN=C(N)N)C(=O)N[C@@H](CCCN=C(N)N)C(=O)N[C@H](C(=O)N[C@H](C(=O)N[C@@H](CCCN=C(N)N)C(=O)N[C@@H](CCCCN)C(=O)N[C@H](C(=O)N[C@H](C(=O)N[C@@H](Cc1cnc[nH]1)C(=O)N[C@H](C(=O)N[C@H](C(=O)N[C@@H](CCCCN)C(=O)N[C@@H](CCCCN)C(=O)NCC(=O)NCC(=O)N[C@@H](CS)C(N)=O)[C@@H](C)CC)[C@@H](C)CC)[C@@H](C)CC)[C@@H](C)CC)[C@@H](C)CC)[C@@H](C)CC [GGHIRRIIRKIIHIIKKGGC],MIC (Enterococcus faecium): 3.3 µM; MIC (Streptococcus pneumoniae): 4 µM
–,–,–,–,–,–,–,–,–,–,–,–,–,≥ 64,≥ 64,NCCCC[C@H](NC(=O)[C@H](CCCN=C(N)N)NC(=O)[C@H](CCCCN)NC(=O)CNC(=O)[C@H](CO)NC(=O)CNC(=O)[C@H](CCCCN)NC(=O)[C@H](CCCN=C(N)N)NC(=O)[C@@H](N)CCCCN)C(=O)O [KRKGSGKRK],–
–,–,–,–,–,–,–,–,–,–,–,–,–,≥ 64,≥ 64,CC[C@H](C)[C@H](NC(=O)[C@H](CC(C)C)NC(=O)[C@H](CCCCN)NC(=O)[C@H](CCCN=C(N)N)NC(=O)[C@@H](N)CCCCN)C(=O)N[C@@H](CCCCN)C(=O)N[C@@H](CCCN=C(N)N)C(=O)N[C@@H](CCCCN)C(=O)O [KRKLIKRK],–
–,–,–,–,–,–,–,–,–,–,–,–,–,0.5,8,CC[C@H](C)[C@H](NC(=O)[C@H](CC(C)C)NC(=O)[C@@H](NC(=O)[C@H](CC(C)C)NC(=O)[C@@H](NC(=O)[C@H](CCCCN)NC(=O)[C@H](CCCN=C(N)N)NC(=O)[C@H](CCCCN)NC(=O)[C@H](CCCN=C(N)N)NC(=O)[C@@H](N)CCCCN)[C@@H](C)CC)[C@@H](C)CC)C(=O)N[C@@H](CCCCN)C(=O)N[C@@H](CCCN=C(N)N)C(=O)N[C@@H](CCCCN)C(=O)O [KRKRKILILIKRK],–
